Laboratory results published in paper PMC10828444, “Selective inhibition of overactive warmth-sensitive Ca^2+-permeable TRPV3 channels by antispasmodic agent flopropione for alleviation of skin inflammation” (The Journal of Biological Chemistry, 2023).
Read-outs that look alike come from different tables or passages of the source.

Key:
[1] = target: T1, hTRPV3 single channel (Homo sapiens, UniProt Q8NET8); assay: Inside-out single-channel recordings of TRPV3 in HEK293 cells; type: cell-based; conditions: agonist 2-APB 30 μmol/L alone, −60 mV
T1 construct: expressed in transfected cells; host or cells: HEK293
T1 sequence (Q8NET8 1-790): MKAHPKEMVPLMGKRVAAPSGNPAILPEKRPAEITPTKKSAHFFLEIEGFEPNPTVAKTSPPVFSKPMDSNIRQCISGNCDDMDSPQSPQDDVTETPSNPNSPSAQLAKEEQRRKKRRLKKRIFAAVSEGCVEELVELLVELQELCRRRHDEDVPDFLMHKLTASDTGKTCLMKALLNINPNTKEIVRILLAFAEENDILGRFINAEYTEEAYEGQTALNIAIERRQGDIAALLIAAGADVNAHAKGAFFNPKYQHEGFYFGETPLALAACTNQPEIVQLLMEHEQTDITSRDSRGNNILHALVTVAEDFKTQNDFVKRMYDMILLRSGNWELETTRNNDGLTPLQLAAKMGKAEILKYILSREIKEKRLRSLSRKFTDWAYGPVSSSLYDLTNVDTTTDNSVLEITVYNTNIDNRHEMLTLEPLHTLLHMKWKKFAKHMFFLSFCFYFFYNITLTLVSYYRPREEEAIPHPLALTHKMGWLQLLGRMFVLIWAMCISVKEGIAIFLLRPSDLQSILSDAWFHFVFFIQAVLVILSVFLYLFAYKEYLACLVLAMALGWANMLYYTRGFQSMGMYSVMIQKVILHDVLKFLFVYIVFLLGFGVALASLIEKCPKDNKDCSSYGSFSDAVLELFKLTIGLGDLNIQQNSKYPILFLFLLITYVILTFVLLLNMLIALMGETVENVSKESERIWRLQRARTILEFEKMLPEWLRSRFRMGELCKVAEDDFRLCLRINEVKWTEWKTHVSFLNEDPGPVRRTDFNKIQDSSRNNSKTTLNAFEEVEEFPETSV
Source text: For single-channel recordings, borosilicate glass pipettes were pulled from borosilicate glass capillaries and fire-polished to the resistance between 6 and 10 MΩ using a DMZ universal electrode puller (Zeitz-Instruments, GmbH). For inside-out single-channel recordings, both pipette and external solutions contained (in mM): 130 NaCl, three HEPES, and 0.2 EDTA (pH = 7.4). Membrane potential was clamped at −60 mV and currents were digitized at 10 kHz and filtered at 2 kHz.

[2] = tested on: TRPV3; conditions: cited from earlier work
[3] = tested on: TRPV2; set-up: method as in PMID 33876725; conditions: ref [18]; read-out: IC50 TRPV2 currents; cited from earlier work
[4] = tested on: TRPM8; set-up: method as in PMID 33876725; conditions: ref [18]; read-out: IC50 TRPM8 currents; cited from earlier work
[5] = tested on: TRPV1; set-up: method as in PMID 30108138, PMID 27160770; conditions: ref [16], [42]; cited from earlier work
[6] = tested on: TRPV4; set-up: method as in PMID 30108138, PMID 27160770; conditions: ref [16], [42]; cited from earlier work
[7] = tested on: TRPA1; set-up: method as in PMID 30377214; conditions: ref [17]; cited from earlier work

Question: Which single-channel conductance [1] does the source give for `NCCOB(c1ccccc1)c1ccccc1` [2-APB, 2-aminoethoxydiphenyl borate] here?
Answer: about 170.9 ± 4.8 pS

Question: And the single-channel open probability [1]?
Answer: 0.75

Question: With `CCCCOc1ccc(C(=O)CCN2CCCCC2)cc1` [dyclonine] as the molecule, how does the IC50 ([2]; ref [18], read-out: IC50 TRPV3 currents) read?
Answer: ~3.2 µM

Question: What about the IC50 [3] of the same molecule?
Answer: 31 µM

Question: What about the IC50 [4] of the same molecule?
Answer: 82 µM

Question: Which IC50 ([2]; ref [16], [42], read-out: IC50 TRPV3) does the source give for `COc1ccc2ccc(=O)oc2c1CC=C(C)C` [osthole] here?
Answer: ~37 µM

Question: And the “inhibition of TRPV1” value [5]?
Answer: weak inhibition

Question: And the “inhibition of TRPV4” value [6]?
Answer: weak inhibition

Question: With forsythoside B as the molecule, how does the IC50 ([2]; ref [17], read-out: IC50 TRPV3 currents) read?
Answer: ~6.7 µM

Question: And the “inhibition of TRPA1 currents” value [7]?
Answer: weak inhibition
